pKi: −log10 of the molar value.
What follows are compounds tested against T1, human A2a receptor (Homo sapiens, UniProt P29274) (assay: A2a competition binding assay, Scintillation Proximity technology). Details: membranes from HEK293 cells expressing human A2a receptor; Ki by Cheng-Prusoff equation.
T1 construct: purchased Perkin-Elmer RBHA2AM400UA; host or cells: HEK293 cells (membranes)
Outline: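 Membranes from HEK293 cells expressing human A2a, adenosine deaminase-treated, incubated 1 h at room temperature with compound (3000 to 0.15 nM) and 0.5 nM tritiated pyrazolotriazolopyrimidine radioligand on WGA SPA beads in Ca/Mg-free PBS + 10 mM MgCl2. Non-specific binding with 1 μM CGS15943; Ki by Cheng-Prusoff.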

T1 sequence (P29274 whole entry): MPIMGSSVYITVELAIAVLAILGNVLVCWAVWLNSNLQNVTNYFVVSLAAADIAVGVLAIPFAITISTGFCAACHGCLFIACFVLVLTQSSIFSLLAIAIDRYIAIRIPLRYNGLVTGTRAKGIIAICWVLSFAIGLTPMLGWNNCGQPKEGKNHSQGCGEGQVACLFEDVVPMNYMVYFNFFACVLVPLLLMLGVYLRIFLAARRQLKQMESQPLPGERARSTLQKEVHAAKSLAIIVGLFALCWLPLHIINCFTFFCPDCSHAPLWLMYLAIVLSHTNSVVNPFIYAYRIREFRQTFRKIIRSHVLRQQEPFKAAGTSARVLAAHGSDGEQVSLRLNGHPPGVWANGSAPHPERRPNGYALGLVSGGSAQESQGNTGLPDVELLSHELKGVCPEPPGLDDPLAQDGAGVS

Structure (SMILES) | pKi
Cc1cc(C)nc(CNC(=O)c2nc(C)c(-c3ncco3)nc2N)n1 [Ex-81, 3-amino-N-[(4,6-dimethylpyrimidin-2-yl)methyl]-6-methyl-5-(1,3-oxazol-2-yl)pyrazine-2-carboxamide] | 8.55
Cc1nc(C(=O)NCc2cccc(C(C)C)n2)c(N)nc1-c1ncco1 [Ex-85, 3-amino-6-methyl-N-{[6-(1-methylethyl)pyridin-2-yl]methyl}-5-(1,3-oxazol-2-yl)pyrazine-2-carboxamide] | 9.15
Cc1ccc(CNC(=O)c2nc(C)c(-c3ncco3)nc2N)nc1-c1ccccn1 [Ex-88, 3-amino-6-methyl-N-[(3-methyl-2,2′-bipyridin-6-yl)methyl]-5-(1,3-oxazol-2-yl)pyrazine-2-carboxamide] | 8.21
Cc1ccc(C(C)C)nc1CNC(=O)c1nc(C)c(-c2ncco2)nc1N [Ex-89, 3-amino-6-methyl-N-{[3-methyl-6-(1-methylethyl)pyridin-2-yl]methyl}-5-(1,3-oxazol-2-yl)pyrazine-2-carboxamide] | 9.13
CCOCCc1ccc(C)c(CNC(=O)c2nc(C)c(-c3ncco3)nc2N)n1 [Ex-90, 3-amino-N-{[6-(2-ethoxyethyl)-3-methylpyridin-2-yl]methyl}-6-methyl-5-(1,3-oxazol-2-yl)pyrazine-2-carboxamide] | 8.31
Cc1nc(C(=O)NCc2cccn(CC(F)F)c2=O)c(N)nc1-c1ncco1 [Ex-91, 3-amino-N-{[1-(2,2-difluoroethyl)-2-oxo-1,2-dihydropyridin-3-yl]methyl}-6-methyl-5-(1,3-oxazol-2-yl)pyrazine-2-carboxamide] | 8.53
Cc1nc(C(=O)NCc2nc(C(F)(F)F)cn2C)c(N)nc1-c1ncco1 [Ex-92, 3-amino-6-methyl-N-{[1-methyl-4-(trifluoromethyl)-1H-imidazol-2-yl]methyl}-5-(1,3-oxazol-2-yl)pyrazine-2-carboxamide] | 7.94
Cc1nc(C(=O)NCc2cccc3cc[nH]c23)c(N)nc1-c1ncco1 [Ex-95, 3-amino-N-(1H-indol-7-ylmethyl)-6-methyl-5-(1,3-oxazol-2-yl)pyrazine-2-carboxamide] | 9.56
Cc1nc(C(=O)NCc2cnc3ccccn23)c(N)nc1-c1ncco1 [Ex-96, 3-amino-N-(imidazo-[1,2-a]pyridin-3-yl-methyl)-6-methyl-5-(1,3-oxazol-2-yl)-pyrazine-2-carboxamide] | 7.89
Cc1nc(C(=O)NCc2c(C)nc3ccccn23)c(N)nc1-c1ncco1 [Ex-97, 3-amino-6-methyl-N-[(2-methylimidazo[1,2-a]pyridin-3-yl)methyl]-5-(1,3-oxazol-2-yl)pyrazine-2-carboxamide] | 7.45
Cc1nc(C(=O)NCc2ccc3c(n2)NCCC3)c(N)nc1-c1ncco1 [Ex-98, 3-amino-6-methyl-5-(1,3-oxazol-2-yl)-N-(5,6,7,8-tetrahydro-1,8-naphthyridin-2-ylmethyl)pyrazine-2-carboxamide] | 8.53
Cc1nc(C(=O)NCc2ccc[n+]([O-])c2)c(N)nc1-c1ncco1 [Ex-99, 3-amino-6-methyl-5-(1,3-oxazol-2-yl)-N-[(1-oxidopyridin-3-yl)methyl]pyrazine-2-carboxamide] | 6.68
Cc1ccc2nc(CNC(=O)c3nc(C)c(-c4ncco4)nc3N)cn2c1 [Ex-102, 3-amino-6-methyl-N-[(6-methylimidazo[1,2-a]pyridin-2-yl)methyl]-5-(1,3-oxazol-2-yl)pyrazine-2-carboxamide] | 7.92
Cc1nc(C(=O)N(C)C(C)c2ccccn2)c(N)nc1-c1ncco1 (stereo not drawn) [Ex-106, 3-amino-N,6-dimethyl-5-(1,3-oxazol-2-yl)-N-(1-pyridin-2-ylethyl)pyrazine-2-carboxamide] | 6.60
Cc1cc(F)cnc1CNC(=O)c1nc(C)c(-c2ncco2)nc1N [Ex-107, 3-amino-N-[(5-fluoro-3-methylpyridin-2-yl)methyl]-6-methyl-5-(1,3-oxazol-2-yl)pyrazine-2-carboxamide] | 8.94
Cc1nc(C(=O)NCc2nccc(C(F)(F)F)n2)c(N)nc1-c1ncco1 [Ex-108, 3-amino-6-methyl-5-(1,3-oxazol-2-yl)-N-{[4-(trifluoromethyl)pyrimidin-2-yl]methyl}pyrazine-2-carboxamide] | 8.18
COc1ccnc(CNC(=O)c2nc(C)c(-c3ncco3)nc2N)n1 [Ex-110, 3-amino-N-[(4-methoxypyrimidin-2-yl)methyl]-6-methyl-5-(1,3-oxazol-2-yl)pyrazine-2-carboxamide] | 8.88
Cc1ccn2cc(CNC(=O)c3nc(C)c(-c4ncco4)nc3N)nc2c1 [Ex-111, 3-amino-6-methyl-N-[(7-methylimidazo[1,2-a]pyridin-2-yl)methyl]-5-(1,3-oxazol-2-yl)pyrazine-2-carboxamide] | 7.09
Cc1nc(C(=O)NCC(=O)c2ccc(F)cc2)c(N)nc1-c1ncco1 [Ex-112, 3-amino-N-[2-(4-fluorophenyl)-2-oxoethyl]-6-methyl-5-(1,3-oxazol-2-yl)pyrazine-2-carboxamide] | 7.84
Cc1nc(C(=O)NCc2cccc(C(C)(C)O)n2)c(N)nc1-c1ncco1 [Ex-119] | 8.20
Cc1cn(C)c(CNC(=O)c2nc(C)c(-c3ncco3)nc2N)n1 [Ex-120, 3-amino-N-[(1,4-dimethyl-1H-imidazol-2-yl)methyl]-6-methyl-5-(1,3-oxazol-2-yl)pyrazine-2-carboxamide] | 8.24
Cc1nc(C(=O)NCc2cccc(C(F)(F)F)n2)c(N)nc1-c1ncco1 [Ex-121, 3-amino-6-methyl-5-(1,3-oxazol-2-yl)-N-{[6-(trifluoromethyl)pyridin-2-yl]methyl}pyrazine-2-carboxamide] | 8.50
COCc1cccc(CNC(=O)c2nc(C)c(-c3ncco3)nc2N)n1 [Ex-122, 3-amino-N-{[6-(methoxymethyl)pyridin-2-yl]methyl}-6-methyl-5-(1,3-oxazol-2-yl)pyrazine-2-carboxamide] | 8.54
COc1ncccc1CNC(=O)c1nc(C)c(-c2ncco2)nc1N [Ex-124, 3-amino-N-[(2-methoxypyridin-3-yl)methyl]-6-methyl-5-(1,3-oxazol-2-yl)pyrazine-2-carboxamide] | 8.75
Cc1nc(C(=O)N2CCc3cccnc3C2)c(N)nc1-c1ncco1 [Ex-125, 3-(5,8-dihydro-1,7-naphthyridin-7(6H)-ylcarbonyl)-5-methyl-6-(1,3-oxazol-2-yl)pyrazin-2-amine] | 7.73

Further lines, results first:

pKi | Structure (SMILES)
8.50 | Cc1nc(C(=O)NC2CCC(F)(F)CC2)c(N)nc1-c1ncco1 [Ex-83, 3-amino-N-(4,4-difluorocyclohexyl)-6-methyl-5-(1,3-oxazol-2-yl)pyrazine-2-carboxamide]
9.33 | Cc1nc(C(=O)NCc2nccn2C(C)C)c(N)nc1-c1ncco1 [Ex-87, 3-amino-6-methyl-N-{[1-(1-methylethyl)-1H-imidazol-2-yl]methyl}-5-(1,3-oxazol-2-yl)pyrazine-2-carboxamide]
8.40 | Cc1nc(C(=O)NCC2(C#N)CCC2)c(N)nc1-c1ncco1 [Ex-93, 3-amino-N-[(1-cyanocyclobutyl)methyl]-6-methyl-5-(1,3-oxazol-2-yl)pyrazine-2-carboxamide]
6.96 | Cc1nc(C(=O)NCc2ncn(CC3CC3)c2C)c(N)nc1-c1ncco1 [Ex-100, 3-amino-N-{[1-(cyclopropylmethyl)-5-methyl-1H-imidazol-4-yl]methyl}-6-methyl-5-(1,3-oxazol-2-yl)pyrazine-2-carboxamide]
7.89 | Cc1nc(C(=O)N[C@H]2CC[C@@H](C(F)(F)F)CC2)c(N)nc1-c1ncco1 [Ex-101, 3-amino-6-methyl-5-(1,3-oxazol-2-yl)-N-[cis-4-(trifluoromethyl)cyclohexyl] pyrazine-2-carboxamide]
9.45 | Cc1nc(C(=O)NCc2n[nH]c3c2CCC3)c(N)nc1-c1ncco1 [Ex-103, 3-amino-6-methyl-5-(1,3-oxazol-2-yl)-N-(1,4,5,6-tetrahydrocyclopenta[c]pyrazol-3-ylmethyl)pyrazine-2-carboxamide]
7.82 | Cc1nc(C(=O)NCc2ncc(F)cn2)c(N)nc1-c1ncco1 [Ex-109, 3-amino-N-[(5-fluoropyrimidin-2-yl)methyl]-6-methyl-5-(1,3-oxazol-2-yl)pyrazine-2-carboxamide]
7.52 | Cc1nc(C(=O)NCCCN2CCC(F)(F)C2)c(N)nc1-c1ncco1 [Ex-113, 3-amino-N-[3-(3,3-difluoropyrrolidin-1-yl)propyl]-6-methyl-5-(1,3-oxazol-2-yl)pyrazine-2-carboxamide]
8.24 | Cc1nc(C(=O)NCc2cn(CC3CC3)cn2)c(N)nc1-c1ncco1 [Ex-114, 3-amino-N-{[1-(cyclopropylmethyl)-1H-imidazol-4-yl]methyl}-6-methyl-5-(1,3-oxazol-2-yl)pyrazine-2-carboxamide]
8.06 | Cc1nc(C(=O)NC2CCC(F)(F)C2)c(N)nc1-c1ncco1 (stereo not drawn) [Ex-115, 3-amino-N-(3,3-difluorocyclopentyl)-6-methyl-5-(1,3-oxazol-2-yl)pyrazine-2-carboxamide]
7.67 | Cc1nc(C(=O)NC2CCCN(CC(F)(F)F)C2)c(N)nc1-c1ncco1 (stereo not drawn) [Ex-116, 3-amino-6-methyl-5-(1,3-oxazol-2-yl)-N-[1-(2,2,2-trifluoroethyl)piperidin-3-yl]pyrazine-2-carboxamide]
6.98 | Cc1nc(C(=O)NC2CCCNC2)c(N)nc1-c1ncco1 (stereo not drawn) [Ex-117, 3-amino-6-methyl-5-(1,3-oxazol-2-yl)-N-piperidin-3-ylpyrazine-2-carboxamide]
7.50 | Cc1nc(C(=O)N[C@H]2CC[C@H](C(F)(F)F)CC2)c(N)nc1-c1ncco1 [Ex-118, 3-amino-6-methyl-5-(1,3-oxaozl-2-yl)-N-[trans-4-(trifluoromethyl)cyclohexyl] pyrazine-2-carboxamide]
7.76 | COCCNC(=O)c1nc(C)c(-c2ncco2)nc1N [Ex-123, 3-amino-N-(2-methoxyethyl)-6-methyl-5-(1,3-oxazol-2-yl)pyrazine-2-carboxamide]

From patent US10472347B2, “Aminopyrazine compounds with A2A antagonist properties” (Merck Sharp & Dohme Corp., priority 2014, dated 2019)
